Results from paper PMC7156458, “Synthetic biology based construction of biological activity-related library of fungal decalin-containing diterpenoid pyrones” (Nature Communications, 2020).
“And” between values parts separate entries of the source, which are not always exact repeats. Identical values can stand only once. Like-named read-outs stand apart in the source and are kept apart here.

System: human immunodeficiency virus-1 (HIV-1)
Assay: anti-HIV MAGI assay
Type: cell-based
Text: We examined the inhibitory activities of DDPs against various species of bacteria (both gram-negative and gram-positive bacteria), fungi and viruses. […] In contrast, preliminary screening of the DDPs for anti-viral agents with hepatitis B virus (HBV), measles virus (MV), Epstein-Barr virus (EBV), herpes simplex virus (HSV) and human immunodeficiency virus-1 (HIV-1) indicated their selective inhibition of HIV.

[1] = Human immunodeficiency virus 1, MAGI, anti-HIV, MAGI assay, read-out: EC50
[2] = Human immunodeficiency virus 1, MAGI, anti-HIV, average of numeric determinations, read-out: Avg. EC50
[3] = Human immunodeficiency virus 1, MAGI, anti-HIV, single determinations, read-out: Efficacy (EC50)
[4] = anti-HIV, single determinations, read-out: Efficacy (EC50)

Row | EC50 [1] [nM] | Structure (SMILES) | EC50 [2] [nM] | further results
1 | < 200 | C=C1CCC2C3(C)CC(C=C(C)C)OC3CCC2(C)C1Cc1c(OC)oc(C)c(C)c1=O (centres unmarked) [Compound 23] | – | –
2 | – | C=C1CCC2C(C)(CCC=C(C)C)C(O)CCC2(C)C1Cc1c(OC)oc(CO)c(C(=O)OC)c1=O (centres unmarked) [Compound 13] | 68.8 | EC50 [3]: 69.7 nM; EC50 [4]: 61.1 nM and 81.4 nM and 63.1 nM
3 | – | C=C1CCC2C(C)(CC(=O)C=C(C)C)C(O)CCC2(C)C1Cc1c(O)c(C)c(C)oc1=O (centres unmarked) [Compound 7] | 163 | –
4 | – | C=C1CC[C@@H]2[C@](C)(CC[C@H]3O[C@H](C=C(C)C)C[C@@]23C)[C@@H]1Cc1c(OC)oc(CO)c(C)c1=O [Compound 20] | 4070 | –
5 | – | C=C1CC[C@@H]2[C@](C)(CC[C@H]3O[C@H](C=C(C)C)C[C@@]23C)[C@@H]1Cc1c(OC)oc(C)c(C)c1=O [Compound 22, O-methylated higginsianin A] | 143 | –
6 | < 200 | C=C1CC[C@H]2[C@]3(C)C[C@H](C=C(C)C)O[C@H]3CC[C@]2(C)[C@@H]1Cc1c(OC)oc(CO)c(C)c1=O [Compound 18] | 644 | –
7 | – | CC(C)=CCC/C(C)=C/CC/C(C)=C/CC/C(C)=C/Cc1c(O)c(C)c(C)oc1=O [Compound 2] | 157 | –
8 | < 200 | C=C1CC[C@H]2[C@]3(C)C[C@H](C=C(C)C)O[C@H]3CC[C@]2(C)[C@@H]1Cc1c(OC)oc(C)c(C)c1=O [Compound 24] | – | –
9 | – | C=C1CCC2C(C)(CCC=C(C)C)C(O)CCC2(C)C1Cc1c(O)c(C)c(C)oc1=O (centres unmarked) [Compound 9, higginsianin B] | – | EC50 [4]: > 10000 nM
10 | – | C=C1CCC2C(C)(CC(=O)C=C(C)C)C(O)CCC2(C)C1Cc1c(OC)oc(CO)c(C)c1=O (centres unmarked) [Compound 19] | 1600 | –
11 | – | C=C1CCC2C(C)(CCC=C(C)C)C(O)CCC2(C)C1Cc1c(OC)oc(CO)c(C)c1=O (centres unmarked) [Compound 16] | – | EC50 (anti-HIV, average of numeric determinations, read-out: Avg. EC50): 48.2 nM; EC50 [4]: 55.6 nM and 36.4 nM and 54.6 nM and 46.4 nM
12 | – | C=C1CCC2C(C)(CCC=C(C)C)C(O)CCC2(C)C1Cc1c(OC)oc(C)c(C)c1=O (centres unmarked) [Compound 15, viridoxin A hydrolysate] | – | EC50 (Human immunodeficiency virus 1, MAGI, read-out: Avg. EC50 (nM), anti-HIV, average of numeric determinations): 8.51 nM
13 | – | C=C1CC[C@H]2[C@]3(C)C[C@H](C=C(C)C)O[C@H]3CC[C@]2(C)[C@@H]1Cc1c(O)c(C)c(C)oc1=O [Compound 6, subglutinol B] | 757 | –
14 | – | C=C1CCC2C(C)(CCC=C(C)C)C(=O)CCC2(C)C1Cc1c(O)c(C)c(C)oc1=O (centres unmarked) [Compound 8] | 23.2 | –
15 | < 200 | C=C1CC[C@@H]2[C@](C)(CC[C@H]3O[C@H](C=C(C)C)C[C@@]23C)[C@@H]1Cc1c(O)c(C)c(C)oc1=O [Compound 10, higginsianin A] | 53.2 | –
16 | < 200 | C=C1CC[C@H]2[C@]3(C)C[C@@H](C=C(C)C)O[C@H]3CC[C@]2(C)[C@@H]1Cc1c(O)c(C)c(C)oc1=O [Compound 5, subglutinol A] | 38.9 | EC50 [3]: 36.3 nM; EC50 [4]: 29.8 nM and 37.9 nM and 51.4 nM
17 | – | C=C1CCC2C(C)(CCC=C(C)C)C(O)CCC2(C)C1Cc1c(O)c(C)c(C)oc1=O (centres unmarked) [Compound 4] | 592 | –

Row | Structure (SMILES) | EC50 [1] [nM] | EC50 [2] [nM] | further results
18 | C=C1CCC2C(C)(CCC=C(C)C)C(O)CCC2(C)C1Cc1c(OC)oc(CO)c(C)c1=O (centres unmarked) [Compound 12] | < 200 | – | –
19 | C=C1CCC2C(C)(CCC=C(C)C)C(O)CCC2(C)C1Cc1c(OC)oc(C)c(C)c1=O (centres unmarked) [Compound 11] | < 200 | – | EC50 [3]: > 10000 nM
20 | C=C1CC[C@H]2[C@]3(C)C[C@@H](C=C(C)C)O[C@H]3CC[C@]2(C)[C@@H]1Cc1c(OC)oc(CO)c(C)c1=O [Compound 17] | < 200 | 1360 | –
21 | C=C1CCC2C(C)(CCC=C(C)C)C(O)CCC2(C)C1Cc1c(OC)oc(C)c(C(=O)OC)c1=O (centres unmarked) [Compound 14] | < 200 | 45.7 | –
